These results are taken from patent publication US9290528B1, “Light-activated compounds” (University of Kentucky Research Foundation, priority 2013, dated 2016).

Read-outs that look alike come from different tables or passages of the source. A value given as a limit tells only on which side of the number the result lay.

One data set relates to calf thymus (CT) DNA. The class given is physicochemical. The settings on record: bovine.
Data set [1] can be described thus: Photoejection half-life of 8 in solvents. The settings on record: D2O vs H2O. The class given is physicochemical. The text has this: The photochemical behaviour of 8 paralleled the photophysical characteristics of unstrained Ru^II complexes containing the dppz ligand.
Data set [2] is described as follows: Light and dark cytotoxicity of exemplary compounds (Table 6). The class given is cell-based. The settings on record: for IC50: cell line not stated. The text has this:
This Example describes additional specific embodiments the presently-disclosed subject matter. […] The methods for making and characterizing the compounds are based on the methodologies described in the previous examples.

The target of a further data set is CT DNA. The data set is described as follows: DNA binding affinity (Kb) with CT DNA. Details: species or system calf. As to conditions: racemic mixtures. The text has this: Intercalation of both complexes was consistent with the reduced mobility of supercoiled plasmid DNA in agarose gels, and the modulation of the absorption spectra in the presence of DNA, characterized by hypochromism of both the π-π* of the dppz ligand and the MLCT transitions, with maximal effect at a ratio of 2:1 DNA base pairs to metal center. Thus, the strained complex retained DNA-sensing capabilities of other Ru^II “light-switch” molecules and photochemical reactivity.

Data set [3] has as its system G-quadruplex [AGGG(TTAGGG)3]. The class given is physicochemical. The text has this:
(§1) The G-quadruplex sequence is [NT].

The next data set deals with 15 mer oligonucleotide A. It counts as physicochemical.
Text: as §1

The IC50 is the point on the concentration scale where inhibition reaches its midpoint.

For the substance Ru(bpy)2dmdppz [Compound 8], the “Half-life” value in the data set on calf thymus (CT) DNA is 41 ± 2 min; in data set [3] it was 13.5 min; in the data set with 15 mer oligonucleotide A, 31 ± 0.5 min. This substance showed a t1/2 values in the data set on calf thymus (CT) DNA of 31 to 41 min. In addition, in data set [1], the “isotope effect of ejection” value is recorded as over 3.4. Further, the IC50 in data set [2] (read-out: Dark IC50) came to 65 µM; in data set [2] (read-out: Light IC50), 14 µM. Also, in data set [2] (dark IC50/light IC50), the “Phototoxicity Index” value was 4.6. Moreover, the Kb at CT DNA worked out at 3e+07 M⁻¹. The “increase of photoejection rate compared to CT DNA” value in data set [3] (bound to G-quadruplex) worked out at 3 fold.
